Patent US20200056988A1, “METHOD OF DETERMINING THE EFFICACY OF ANTIMICROBIALS” (Wisconsin Alumni Research Foundation, priority 2018, published 2020)

Tested on: infection in critically ill and injured adult ICU subjects
Experiment: Variation (standard deviation) of exhaled 13CO2/12CO2 breath delta value (BDV) as a marker of response to antimicrobial treatment
Assay type: in vivo, human
Conditions: single ICU subject of FIG. 15, BAL culture positive for Aspergillus fumigatus; cefuroxime days 1 through 7, cefepime added after day seven
Method: The study was conducted as a multi-center prospective study, at four academic research hospitals, to assess exhaled ^13CO2/^12CO2 BDV as an indicator of infection in 20 critically ill and injured adult ICU subjects. Critically ill adult ICU subjects who were not suspected of having an infection at the time of ICU admission were enrolled as study subjects.
Exhaled breath samples were collected upon subject enrollment and every four hours thereafter until the subject was discharged home, transferred to a general care unit/status, or after seven days of breath sample collection, whichever came first. Each sample was collected in four-hour intervals, calculated from the initial sample time, with a window of ±1 hour. Samples collected outside of the specified time interval were still analyzed. […]
Breath samples were shipped to a central laboratory (Isomark, LLC, Madison, Wis.) within 48 hours of final collection from each subject. The breath samples were analyzed using the Canary™ device. The ^13CO2/^12CO2 ratio of each sample was determined from direct measurement and calculated using Pee Dee Belemnite (PDB) as a standard reference: […]
where BDV is expressed as parts per mil (‰). […] The delta over baseline (DOB) was then calculated by subtracting the baseline sample from subsequent samples as described: […]

Row | SMILES | mean variation of BDV
1 | CO/N=C(\C(=O)N[C@@H]1C(=O)N2C(C(=O)[O-])=C(C[N+]3(C)CCCC3)CS[C@H]12)c1csc(N)n1 [cefepime] | 0.37 ‰
2 | CO/N=C(\C(=O)N[C@@H]1C(=O)N2C(C(=O)O)=C(COC(N)=O)CS[C@H]12)c1ccco1 [cefuroxime] | 0.72 ‰
